Data published in patent US8609812B2, “Use of β-2-microglobulin to assess glomerular alterations and damage in the kidney” (Novartis AG, priority 2007, dated 2013).

System: kidney
Test: rat in vivo studies, histopathology of kidney
Source text: Results of in vivo studies and histopathology. All 10 rat in vivo studies were successfully conducted.
In FIG. 2, the distributions of grades of the histopathology assessment are shown. The predominance of grade 1 and grade 2 findings and the absence of grade 5 lesions indicate that the goal of inducing mainly mild nephrotoxicity has been achieved. The considerable number of grade 1 and some grade 2 findings in the vehicle-dosed and the hepatotoxicant-dosed animals indicates the level of sensitivity of the histopathology assessment performed in this project. No significant dose-dependent nephrotoxicity was induced by the hepatotoxicants. In FIG. 3 a detailed list of all reported localized lesions, including the number of occurrences for each grade, separated by nephrotoxicant-dosed animals and the control animals (vehicle-dosed and hepatotoxicant-dosed) is shown. Seventy-five different localized finding were observed.
The different types of lesions were usually not observed in an isolated fashion, but typically in a highly correlated manner representing different molecular processes. In FIG. 4, all histopathology findings are shown for the cisplatin study. […] In addition, a logical sequence of molecular processes along the dose- and time-ordered animals can be observed. […]

Structure (SMILES)	histopathology findings in the kidney (ANIT study, vehicle or different doses)	renal histopathology findings, sequence of processes (rat, in vivo)
S=C=Nc1cccc2ccccc12 [ANIT, alpha-naphtylisothiocyanate]	not in the kidney	
N.N.[Cl][Pt][Cl] [cisplatin]		Necrosis as a consequence of damage is seen, and then regeneration processes such as basophilia and mitosis are seen
